Assay results published in patent US5317024A, “Ether derivatives of alkyl piperidines and pyrrolidines as antipsychotic agents” (DuPont Merck Pharmaceutical Co., priority 1993, dated 1994).
Where a name gives a salt, the structure may show the parent alone. Read-outs that look alike come from different tables or passages of the source.

Tests used:
dopamine D-2 receptor = target: T1, dopamine D-2 receptor (Cavia porcellus, UniProt H0VE83); assay: Dopamine Receptor Binding ([3H]spiperone, striatum membranes); set-up: species or system guinea pig
T1 construct: Membranes were prepared from guinea pig striatum; from tissue; host or cells: guinea pig striatum membranes
T1 sequence (H0VE83 1-446): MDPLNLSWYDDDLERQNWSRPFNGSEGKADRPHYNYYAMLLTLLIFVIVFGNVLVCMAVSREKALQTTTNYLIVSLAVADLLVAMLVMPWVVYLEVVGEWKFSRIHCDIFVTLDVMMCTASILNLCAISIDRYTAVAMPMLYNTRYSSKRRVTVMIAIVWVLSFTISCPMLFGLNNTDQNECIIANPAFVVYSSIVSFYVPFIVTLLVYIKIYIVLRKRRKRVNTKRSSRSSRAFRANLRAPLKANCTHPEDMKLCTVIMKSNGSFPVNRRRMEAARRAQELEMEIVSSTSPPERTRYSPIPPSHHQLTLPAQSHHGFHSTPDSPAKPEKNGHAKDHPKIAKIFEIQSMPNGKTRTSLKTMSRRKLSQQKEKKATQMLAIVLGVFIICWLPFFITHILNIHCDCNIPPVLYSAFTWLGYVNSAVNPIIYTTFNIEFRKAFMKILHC
Protocol: (§1) Male Hartley guinea pigs (250-300 g, Charles River) were sacrificed by decapitation. […] Whole brains were homogenized (20 seconds) in 10 vol (wt/vol) of ice-cold 0.34 M sucrose with a Brinkmann Polytron (setting 8). The homogenate was centrifuged at 920 × g for 10 minutes. The supernatant was centrifuged at 47,000 × g for 20 minutes. The resulting membrane pellet was resuspended in 10 vol (original wt/vol) of 50 mM Tris HCl (pH 7.4) and incubated at 37° C. for 45 minutes to degrade and dissociate bound endogenous ligands. The membranes were then centrifuged at 47,000 × g for 20 minutes and resuspended in 50 mM Tris HCl (50 mL per brain).
Membranes were prepared from guinea pig striatum by the method described for sigma receptor binding. The membranes were then resuspended in 50 mM Tris HCl (9 mL per brain).
Nonspecific binding was measured in the presence of 100 nM (+)-butaclamol.After 15 minutes of incubation at 37° C., samples were filtered rapidly through Whatman GF/C glass filters under negative pressure, and washed three times with ice-cold binding buffer (5 mL).
IC50 s were calculated from log-logit plots.

sigma receptor = sigma receptor (Cavia porcellus, UniProt Q60492); assay: biochemical; conditions: 1 nM (+)-[3H]SKF 10,047, guinea pig brain membranes, pH 7.4, 45 min, room temperature; read-out: SIGMA receptor binding Ki
Sequence of sigma receptor (Q60492 whole entry): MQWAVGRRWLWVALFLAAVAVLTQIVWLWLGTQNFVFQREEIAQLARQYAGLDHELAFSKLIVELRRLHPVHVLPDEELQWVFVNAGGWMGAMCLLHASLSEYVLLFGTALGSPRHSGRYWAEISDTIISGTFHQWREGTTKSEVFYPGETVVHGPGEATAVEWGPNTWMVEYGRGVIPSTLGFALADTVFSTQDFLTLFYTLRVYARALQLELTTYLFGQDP
Protocol: as §1
After 45 minutes of incubation at room temperature, samples were filtered rapidly through Whatman GF/C. glass filters under negative pressure, and washed 3 times with ice-cold Tris buffer (5 mL).
IC50 s were calculated from log-logit plots. Apparent Ki s were calculated from the equation, Ki = IC50 /[1+(L/Kd)] (4), where L is the concentration of radio ligand and Kd is its dissociation constant.

[1] = Isolation-Induced Aggression in Mice; type: in vivo, Male Balb/c mice; conditions: oral; for ED50: Mus musculus, 0.25 h, 15 min after dosing, isolated male Balb/c mice, read-out: Inhibition of Isolation-induced Aggression ED50; for inhibiting isolation-induced aggressive behavior (in words): mice, summary of Table 5
Protocol: Male Balb/c mice (Charles River) were used. […] Isolated mice failing to consistently attack an intruder were eliminated from the colony. Drug testing was carried out by treating the isolated mice with test drugs or standards. Fifteen minutes after dosing with test drugs by the oral route, one isolated mouse was removed from its home cage and placed in the home cage of another isolate. Scoring was a yes or no response for each pair. A maximum of 3 minutes was allowed for an attack and the pair was separated immediately upon an attack. Selection of home cage and intruder mice was randomized for each test. Mice were treated and tested twice a week with at least a 2 day washout period between treatments.

[2] = 0.15 nM [3H]spiperone, guinea pig striatum membranes, pH 7.7, 15 min, 37° C., read-out: DOPAMINE D-2 receptor binding Ki

Row | Compound | Ki (dopamine D-2 receptor; [2]) | Ki (sigma receptor) | ED50 [1] | inhibiting isolation-induced aggressive behavior (in words) [1] | Ki (dopamine D-2 receptor)
1 | C(=C\c1ccccc1)/COC1CCN(Cc2ccccc2)C1 (centres unmarked) [Example 32] | > 0.5 µM | 0.001 to 0.03 µM | – | – | –
2 | C(=C\c1ccccc1)/COCC1CCN(Cc2ccccc2)CC1.Cl [Example 21, (E)-1-Benzyl-4-[(3-phenyl-2-propenyloxy)methyl]piperidine hydrochloride] | > 0.5 µM | 0.001 to 0.03 µM | 21 to 70 mg/kg | effective | –
3 | C(=C\c1ccccc1)/COC[C@H]1CCCN1Cc1ccccc1 [Example 37] | > 0.5 µM | 0.001 to 0.03 µM | – | – | –
4 | C(=C\c1ccccc1)/COCC1CCN(CCc2ccccc2)CC1 [Example 25, (E)-1-phenethyl-4-[(3-phenyl-2-propenyloxy)methyl] piperidine, hydrochloride salt] | 0.101 to 0.5 µM | 0.001 to 0.03 µM | 21 to 70 mg/kg | effective | –
5 | C(#Cc1ccccc1)COCCC1CCN(CCc2ccccc2)CC1 [Example 39, 1-Phenethyl-4-(3-phenyl-2-propynyloxy)ethyl] piperidine, hydrochloride salt] | 0.101 to 0.5 µM | 0.001 to 0.03 µM | – | – | –
6 | Fc1ccc(/C=C/COCC2CCN(Cc3ccccc3)CC2)cc1 [Example 22, (E)-1-benzyl-4-{[3-(4-fluoro)phenyl-2-propenyloxy]methyl} piperidine, hydrochloride salt] | > 0.5 µM | 0.001 to 0.03 µM | – | – | –
7 | C(=C\c1ccccc1)/COC[C@@H]1CCCN1Cc1ccccc1 [Example 38] | > 0.5 µM | 0.001 to 0.03 µM | – | – | –
8 | C(=C\c1ccccc1)/COC1CCN(Cc2ccccc2)CC1 [Example 31] | > 0.5 µM | 0.001 to 0.03 µM | – | – | –
9 | C(#Cc1ccccc1)COCCC1CCN(Cc2ccccc2)CC1 [Example 40] | > 0.5 µM | 0.001 to 0.03 µM | – | – | –
10 | CC(C)=CCN1CCC(COC/C=C/c2ccccc2)CC1 [Example 29] | > 0.5 µM | 0.001 to 0.03 µM | – | – | –
11 | C(=C\c1ccccc1)/COCC1CCN(CCCc2ccccc2)CC1 [Example 30, (E)-1-(3-phenyl)propyl-4-[(3-phenyl-2-propenyloxy)methyl]piperidine, hydrochloride salt] | > 0.5 µM | 0.001 to 0.03 µM | – | – | –
12 | C(=C\c1ccccc1)/COCCC1CCN(Cc2ccccc2)CC1 [Example 41, (E)-1Benzyl-4-[(3-phenyl-2-propenyloxy)lethyl]piperidine, maleic acid salt] | > 0.5 µM | 0.001 to 0.03 µM | – | – | –
13 | C(=C\c1ccccc1)/COCC1CCCN(Cc2ccccc2)C1 (centres unmarked) [Example 27] | > 0.5 µM | 0.001 to 0.03 µM | – | – | –
14 | C(=C\c1ccccc1)/COCCC1CCCCN1Cc1ccccc1 (centres unmarked) [Example 24] | > 0.5 µM | 0.001 to 0.03 µM | – | – | –
15 | C(COCC1CCN(Cc2ccccc2)CC1)=C(c1ccccc1)c1ccccc1 [Example 34] | – | 0.001 to 0.03 µM | – | – | > 0.5 µM
16 | FC(F)(F)c1ccc(/C=C/COCC2CCN(Cc3ccccc3)CC2)cc1 [Example 35, (E)-1-benzyl-4-{[3-(4-trifluoromethyl)phenyl-2-propenyloxy]methyl}piperidine, maleic acid salt] | > 0.5 µM | 0.001 to 0.03 µM | – | – | –
17 | CCCCCCN1CCC(COC/C=C/c2ccccc2)CC1 [Example 36] | > 0.5 µM | 0.001 to 0.03 µM | – | – | –
18 | C(=C\c1ccccc1)/COCC1CCN(Cc2cccc3ccccc23)CC1 [Example 33] | > 0.5 µM | 0.031 to 0.1 µM | – | – | –
19 | C(=C\c1ccccc1)/COCC1CCCCN1Cc1ccccc1 (centres unmarked) [Example 28] | > 0.5 µM | 0.001 to 0.03 µM | – | – | –
20 | C(=C\c1ccccc1)/COCC1CCN(Cc2ccc3ccccc3c2)CC1 [Example 26] | > 0.5 µM | 0.001 to 0.03 µM | – | – | –
21 | O=C(CCCN1CCC(O)(c2ccc(Cl)cc2)CC1)c1ccc(F)cc1 [Haloperidol, reference compound] | – | – | < 10 mg/kg | effective | –
22 | C(=C/c1ccccc1)/COCCC1CCN(Cc2ccccc2)CC1 [Example 42, (Z)-1-Benzyl-4[(3-phenyl-2-propenyloxy)ethyl]piperidine] | > 0.5 µM | 0.031 to 0.1 µM | – | – | –
23 | C(=C\c1ccccc1)/COCC1CCN(CC2CC2)CC1 [Example 23] | > 0.5 µM | 0.001 to 0.03 µM | – | – | –
